The values that follow come from US20130109682A1, “CYCLIC ETHER COMPOUNDS USEFUL AS KINASE INHIBITORS” (NOVARTIS AG, priority 2010, published 2013).

Experiment [1] deals with KMS11 (human myeloma cell line). Description: Cell proliferation assay (CellTiter-Glo), KMS11. The experiment is classed as cell-based. Conditions: Homo sapiens, KMS-11. In outline:
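EC50 derived from CellTiter-Glo luminescence after 3-day exposure at 37° C. Compound was diluted to 2× in medium and added to an equal volume of cells. KMS11 myeloma cells were plated on assay day at 2000/well in IMDM with 10% FBS and sodium pyruvate.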
Background: ATP-based viability assays read luminescence as a measure of living cells.

A further experiment addresses GSK3β (Homo sapiens, UniProt P49841). Briefly: GSK3β ATP depletion assay. The experiment is classed as biochemical. Conditions: read-out: GSK3b IC50. In outline:
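Kinase activity is read as ATP consumption: luciferase luminescence reports the ATP remaining once roughly half of the 2 μM ATP is used. Reaction mix: 5 nM GSK3β, 10 μM b-CREB peptide, 50 mM Tris pH 7.5, 15 mM MgCl2, 1 mM DTT, 0.1% BSA, 2.5% DMSO. Enzyme and peptide are preincubated 15 min before ATP is added.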

Another experiment concerns the target PKCα (Homo sapiens, UniProt P17252). Briefly: PKCα kinase Caliper assay. The class given is biochemical. Conditions: read-out: PKC IC50. A digest of the protocol:
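Eight-point compound dilutions incubated with PKCα and peptide/ATP for 60 min at 30° C in 50 mM HEPES pH 7.5, 1 mM DTT, 0.02% Tween20, 0.02% BSA, 0.6% DMSO. Activity from phospho-peptide formed, separated by microfluidic mobility shift.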

A further experiment has as its target PDGFRaV561D kinase (Homo sapiens, UniProt P16234, V561D). Briefly: PDGFRaV561D kinase inhibition assay (LanthaScreen TR-FRET). Conditions: read-out: PDGFRa IC50. The experiment is classed as biochemical. A digest of the protocol:
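TR-FRET end-point assay with 4.4 nM PDGFRa V561D kinase, 50 nM polyEAY, 10 mM Mn and 2 μM ATP (f.c.) in Tris pH 7.4 buffer. After 1 h, EDTA stop and Tb-labeled P-20 antibody added; read after 45 min in the dark.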
(In general: Time-resolved FRET reads energy transfer from a long-lived donor to a nearby acceptor.)

[2] abbreviates: KMS11 cells, cell proliferation, read-out: KMS11-Luc EC50.

In general, EC50 refers to the midpoint of the concentration-response curve. In general, IC50 refers to the concentration that inhibits the measured activity by half.

Like-named read-outs stand apart in the source and are kept apart here.

GSK3β, sequence (P49841 whole entry, species assumed): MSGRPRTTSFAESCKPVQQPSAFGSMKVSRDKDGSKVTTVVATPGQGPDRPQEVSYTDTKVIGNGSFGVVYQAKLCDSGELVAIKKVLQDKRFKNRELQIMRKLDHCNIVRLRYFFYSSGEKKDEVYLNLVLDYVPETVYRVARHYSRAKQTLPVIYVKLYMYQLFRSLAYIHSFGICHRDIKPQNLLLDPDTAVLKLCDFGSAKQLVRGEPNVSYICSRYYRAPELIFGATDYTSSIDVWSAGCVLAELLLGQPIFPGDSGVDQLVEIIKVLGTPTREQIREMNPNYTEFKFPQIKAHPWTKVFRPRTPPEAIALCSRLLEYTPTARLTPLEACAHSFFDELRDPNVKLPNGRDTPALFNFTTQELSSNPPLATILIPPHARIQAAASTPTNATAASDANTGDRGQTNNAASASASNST
PDGFRaV561D kinase, sequence (P16234 24-1089 V561D): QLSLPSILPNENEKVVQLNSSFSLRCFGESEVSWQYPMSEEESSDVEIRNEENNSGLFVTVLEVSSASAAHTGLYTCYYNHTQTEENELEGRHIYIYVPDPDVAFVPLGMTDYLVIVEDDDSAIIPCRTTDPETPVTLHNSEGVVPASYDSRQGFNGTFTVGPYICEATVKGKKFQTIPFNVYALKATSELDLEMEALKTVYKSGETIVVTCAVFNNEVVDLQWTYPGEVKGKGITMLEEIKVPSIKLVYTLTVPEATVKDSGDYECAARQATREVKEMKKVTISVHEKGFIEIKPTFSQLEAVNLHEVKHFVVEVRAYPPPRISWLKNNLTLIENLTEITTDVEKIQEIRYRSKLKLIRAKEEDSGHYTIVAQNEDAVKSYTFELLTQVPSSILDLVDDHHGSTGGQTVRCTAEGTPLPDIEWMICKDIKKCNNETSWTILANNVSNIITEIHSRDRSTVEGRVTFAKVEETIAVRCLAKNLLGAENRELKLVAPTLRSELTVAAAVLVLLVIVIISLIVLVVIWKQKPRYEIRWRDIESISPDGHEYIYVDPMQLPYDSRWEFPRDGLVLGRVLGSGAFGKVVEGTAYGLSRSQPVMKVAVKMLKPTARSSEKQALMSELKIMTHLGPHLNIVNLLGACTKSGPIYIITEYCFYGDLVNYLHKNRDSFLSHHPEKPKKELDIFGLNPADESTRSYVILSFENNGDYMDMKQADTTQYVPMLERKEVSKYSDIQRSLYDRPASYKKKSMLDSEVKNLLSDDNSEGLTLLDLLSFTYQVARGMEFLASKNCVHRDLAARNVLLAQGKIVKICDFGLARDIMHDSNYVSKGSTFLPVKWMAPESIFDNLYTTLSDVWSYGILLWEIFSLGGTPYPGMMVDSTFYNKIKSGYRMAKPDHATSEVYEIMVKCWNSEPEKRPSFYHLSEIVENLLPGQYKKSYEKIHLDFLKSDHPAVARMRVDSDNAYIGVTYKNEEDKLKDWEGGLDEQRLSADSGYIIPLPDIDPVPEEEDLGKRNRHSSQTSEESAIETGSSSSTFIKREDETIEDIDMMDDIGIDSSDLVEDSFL

As to `CC[C@@H]1O[C@H](c2ccncc2NC(=O)c2nc(-c3ccccc3)cnc2N)C[C@H](N)[C@@]1(C)O` [Example 345, 3-amino-N-(4-((2S,4S,5R,6S)-4-amino-6-ethyl-5-hydroxy-5-methyltetrahydro-2H-pyran-2-yl)pyridin-3-yl)-6-phenylpyrazine-2-carboxamide], the EC50 in experiment [1] (setting [2]) came to 3170 nM. Moreover, the IC50 at GSK3β (ATP depletion assay) was 370 nM; at PKCα (PKCα Caliper assay), 660 nM; on PDGFRaV561D kinase, 7400 nM.
For `C[C@H]1O[C@@H](c2ccncc2NC(=O)c2nc(-c3ccccc3)cnc2N)C[C@@H](N)[C@]1(C)O` [Example 228, 3-amino-N-(4-((2R,4R,5S,6R)-4-amino-5-hydroxy-5,6-dimethyltetrahydro-2H-pyran-2-yl)pyridin-3-yl)-6-phenylpyrazine-2-carboxamide], in that order: 2060 nM, 13 nM, 76 nM and 37 nM.
For `C[C@]1(O)[C@H](N)C[C@H](c2ccncc2NC(=O)c2nc(-c3ccccc3)cnc2N)O[C@@H]1C1CC1` [Example 344, 3-amino-N-(4-((2R,4R,5S,6R)-4-amino-6-cyclopropyl-5-hydroxy-5-methyltetrahydro-2H-pyran-2-yl)pyridin-3-yl)-6-phenylpyrazine-2-carboxamide], in that order: 870 nM, 29 nM, 110 nM and 110 nM.
In turn, `CC[C@]1(O)[C@H](O)C[C@H](c2ccncc2NC(=O)c2nc(-c3c(F)cccc3F)ncc2N)O[C@@H]1C` [Example 143, 5-amino-2-(2,6-difluorophenyl)-N-(4-((2R,4R,5S,6R)-5-ethyl-4,5-dihydroxy-6-methyltetrahydro-2H-pyran-2-yl)pyridin-3-yl)pyrimidine-4-carboxamide] returned a 50% effective concentration (EC50) in experiment [1] (KMS11-Luc cells) of 1940 nM. The figures for the IC50 on GSK3β, on PKCα and at PDGFRaV561D kinase were 102 nM, more than 10000 nM and more than 10000 nM, respectively.
`C[C@@H]1O[C@H](c2ccncc2NC(=O)c2nc(-c3ccccc3)cnc2N)C[C@H](N)[C@@]1(C)O` [Example 229, 3-amino-N-(4-((2S,4S,5R,6S)-4-amino-5-hydroxy-5,6-dimethyltetrahydro-2H-pyran-2-yl)pyridin-3-yl)-6-phenylpyrazine-2-carboxamide]: in experiment [1] (setting [2]), the EC50 was determined as 5870 nM. In addition, the IC50 was 39 nM at GSK3β (ATP depletion assay), 370 nM on PKCα (PKCα Caliper assay) and 1000 nM on PDGFRaV561D kinase.
For `CC(C)(C)[C@H]1O[C@@H](c2ccncc2NC(=O)c2nc(-c3ccccc3)cnc2N)C[C@@H](N)[C@@H]1O` [Example 354, 3-amino-N-(4-((2R,4R,5S,6R)-4-amino-6-tert-butyl-5-hydroxytetrahydro-2H-pyran-2-yl)pyridin-3-yl)-6-phenylpyrazine-2-carboxamide], in that order: 140 nM, 3.2 nM, 22 nM and 26 nM.
Regarding `CC(C)[C@@H]1O[C@H](c2ccncc2NC(=O)c2nc(-c3ccccc3)cnc2N)C[C@H](N)[C@H]1O` [Example 240, 3-amino-N-(4-((2S,4S,5R,6S)-4-amino-5-hydroxy-6-isopropyltetrahydro-2H-pyran-2-yl)pyridin-3-yl)-6-phenylpyrazine-2-carboxamide], the EC50 in experiment [1] (setting [2]) came out at 380 nM. In addition, the IC50 at GSK3β (ATP depletion assay) was determined as 270 nM; on PKCα (PKCα Caliper assay), 290 nM; at PDGFRaV561D kinase, 7300 nM.
For `N[C@@H]1C[C@H](c2ccncc2NC(=O)c2ccc(F)c(-c3c(F)cccc3F)n2)O[C@@H]2CCC[C@H]12` [Example 224, N-(4-((2R,4R,4aR,7aR)-4-aminooctahydrocyclopenta[b]pyran-2-yl)pyridin-3-yl)-6-(2,6-difluorophenyl)-5-fluoropicolinamide], in that order: 650 nM, 363 nM, more than 10000 nM and 390 nM.
For `CC[C@@H]1O[C@H](c2ccncc2NC(=O)c2nc(-c3ccccc3)cnc2N)C[C@H](N)[C@H]1O` [Example 342, 3-amino-N-(4-((2S,4S,5R,6S)-4-amino-6-ethyl-5-hydroxytetrahydro-2H-pyran-2-yl)pyridin-3-yl)-6-phenylpyrazine-2-carboxamide], in that order: 770 nM, 39 nM, 71 nM and 140 nM.
